pIC50: −log10 of the molar value. The source made the active and inactive calls. The calls are words filed in the database; no cut-off is given here.
Key:
[1] = biological target: T1, Mushroom tyrosinase (Agaricus bisporus) (UniProt O42713+Q00024+C7FF04+C7FF05); assay: Inhibition of immobilized mushroom tyrosinase diphenolase activity assessed as reduction in caffeic acid oxidation at 50 uM by amperometric tyrosinase biosensor method
[2] = biological target: T1, Mushroom tyrosinase (Agaricus bisporus); assay: Inhibition of mushroom tyrosinase assessed as reduction in caffeic acid oxidation measured after 6 mins by UV-Vis spectrophotometric method
[3] = biological target: T1, Mushroom tyrosinase (Agaricus bisporus); assay: Inhibition of mushroom tyrosinase monophenolase activity assessed as reduction in lag time of enzymatic reaction at 50 uM using caffeic acid as substrate by amperometric tyrosinase biosensor method
[4] = biological target: T1, Mushroom tyrosinase (Agaricus bisporus); assay: Inhibition of mushroom tyrosinase diphenolase activity assessed as reduction in caffeic acid oxidation measured after 6 mins by UV-Vis spectrophotometric method
[5] = Aqueous solubility of the compound; assay type: physicochemical; settings: buffer
[6] = test system: Lymphocyte; assay: Cytotoxicity against human lymphocytes; assay type: cell-based

| Structure (SMILES) | inhibition [1] | inhibition [2] | inhibition [3] | inhibition [4] [%] | solubility [5] | pIC50 [6] |
| --- | --- | --- | --- | --- | --- | --- |
| Oc1ccc2c(c1-c1c(O)ccc3c1OCO3)OCO2 | 82% | Active | Active | – | – | – |
| Oc1cccc(O)c1-c1c(O)cccc1O | Active | Active | – | – | – | – |
| COc1cc(O)cc(-c2cc(O)cc(OC)c2OC)c1OC | Active | Active | – | – | – | – |
| Oc1ccc(-c2ccc(O)c(O)c2)cc1O | Active | Active | – | 60 | Soluble | – |
| C=CCc1cc(-c2ccc(O)c(CC=C)c2)ccc1O | Active | Active | – | – | – | > 4.00 |
| Oc1ccccc1-c1ccccc1O | 10 to 20% | 10% | – | – | – | – |
| Oc1ccc(-c2ccc(O)cc2)cc1 | Active | Active | – | – | – | – |
| COc1cc(C)c(-c2cc(O)c(OC)cc2C)cc1O | Active | – | – | – | – | – |
